Results from patent publication US20050209248A1, “Plymorphic forms of phenyl oxazolidinone derivatives” (priority 2002, published 2005).
≈ marks a conversion by molar mass, not a printed value. Like-named read-outs stand apart in the source and are kept apart here.

Tests used:
anaerobic bacteria = experiment: NCCLS agar dilution MIC, anaerobic bacteria (summary); format: cell-based; conditions: anaerobes, Wilkins Chalgren Agar, 48 hour anaerobic incubation; for MIC Range: in µg/mL
Prevotella bivia = experiment: Agar dilution MIC; format: cell-based; conditions: Prevotella bivia isolate
[1] = test system: Porphyromonas asaccharolytica; experiment: Agar dilution MIC; format: cell-based; conditions: Porphyromonas asaccharolytica isolate
Porphyromonas gingivalis = experiment: Agar dilution MIC; format: cell-based; conditions: Porphyromonas gingivalis isolate
Fusobacterium necrogenes = experiment: Agar dilution MIC; format: cell-based; conditions: Fusobacterium necrogenes isolate
[2] = test system: MRSA 1029/99 and MRSE 879/247; experiment: Inhibition of biofilm (slime) production, safranin staining; format: cell-based; conditions: trypticase soy broth with 2% glucose, overnight 37° C., Graphs A to D
Description: (§1) Inhibition of slime production • 2. Activity against glass-adherent bacteria.
To study the effect of polymorphic ‘Form A’ on the inhibition of biofilm production, the following study was carried out as set forth in Blake et al. J. Clinical Microbiol. 2001; 39:544-550; and Polonio et al. Chemother. 2001; 45:3262-3266. […] Bacterial suspensions (in triplicate) were exposed a doubling dilution of antibiotics and incubated overnight at 37° C. with constant shaking (100 rpm). The next day, after aspirating the medium, the biofilm was stained with safranin (0.1%) for 1 hour at room temperature, washed with distilled water, tapped dry and stain-extracted into 200 μl of 0.2M NaoH and the OD measured at 544 nm.

MRSE 879 = experiment: Broth MIC; format: cell-based; conditions: for MIC: Staphylococcus epidermidis, read-out: broth MIC
Description: (§2) The change in MIC in broth and on sintered glass adherent bacteria is presented in Graph E. [drawing]

[3] = test system: MRSE 879 adherent bacteria; experiment: Sintered glass adherent bacteria model; format: cell-based; conditions: MRSE 879, sintered glass adherent
Description: as §1, §2

[4] = test system: Mycobacterium tuberculosis; experiment: Agar dilution method for M. tuberculosis (Middlebrook 7H10); format: cell-based; conditions: 504 h; for MIC90 / MIC: 21 days at 37° C.; for MIC: read-out: G.M. (MIC)
[5] = test system: Mycobacterium avium intracellulare; experiment: Agar dilution method (Middlebrook 7H10); format: cell-based; conditions: 504 h, 21 days at 37° C.; for MIC: read-out: G.M. (MIC)
[6] = in vivo; cited from earlier work
Clostridium perfringens = format: cell-based

| Compound | Geometric Mean (MIC) (anaerobic bacteria) [µg/mL] | MIC50 (anaerobic bacteria) [µg/mL] | MIC90 (anaerobic bacteria) [µg/mL] | MIC Range (anaerobic bacteria) | MIC (Prevotella bivia) [µg/mL] | MIC [1] [µg/mL] | MIC (Porphyromonas gingivalis) [µg/mL] | MIC (Fusobacterium necrogenes) [µg/mL] | MIC50 [4] [µg/mL] | MIC90 [4] [µg/mL] | MIC [4] [µg/mL] | MIC50 [5] [µg/mL] | MIC90 [5] [µg/mL] | MIC [5] [µg/mL] | also measured |
| --- | --- | --- | --- | --- | --- | --- | --- | --- | --- | --- | --- | --- | --- | --- | --- |
| CC(=O)NC[C@H]1CN(c2ccc(N3CCN(Cc4ccc([N+](=O)[O-])o4)CC3)c(F)c2)C(=O)O1.Cl [Polymorphic ‘Form A’] | 0.037 | 0.032 | 0.25 | 0.004-1 | 0.125 | ≤ 0.008 | ≤ 0.008 | ≤ 0.008 | 4 | 64 | 5.44 | 8 | 32 | 8.52 | Inhibition of Biofilm formation [2]: occurs at a lower concentration; MIC (MRSE 879; MRSE 879, broth): 0.5 µg/mL; concentration which would kill adherent bacteria [3]: 2 µg/mL |
| Teicoplanin | 2.04 | 2 | 32 | 0.03-32 | 1 | 0.125 | ≤ 0.06 | > 16 |  |  |  |  |  |  |  |
| COc1c(N2CCNC(C)C2)c(F)cc2c(=O)c(C(=O)O)cn(C3CC3)c12 (stereo not shown) [Gatifloxacin] | 0.659 | 0.5 (≈ 1.33 µM) | 2 (≈ 5.33 µM) | 0.06-32 | 2 (≈ 5.33 µM) | 0.25 (≈ 0.666 µM) | 0.06 (≈ 0.16 µM) | 0.5 (≈ 1.33 µM) |  |  |  |  |  |  |  |
| CO[C@H]1/C=C/O[C@@]2(C)Oc3c(C)c(O)c4c(O)c(c(/C=N/N5CCN(C)CC5)c(O)c4c3C2=O)NC(=O)/C(C)=C\C=C\[C@H](C)[C@H](O)[C@@H](C)[C@@H](O)[C@@H](C)[C@H](OC(C)=O)[C@@H]1C [Rifampicin] |  |  |  |  |  |  |  |  | 64 (≈ 77.8 µM) | 64 (≈ 77.8 µM) | 6.35 (≈ 7.72 µM) | 1 (≈ 1.22 µM) | 32 (≈ 38.9 µM) | 2 (≈ 2.43 µM) |  |
| Cc1ncc([N+](=O)[O-])n1CCO [Metronidazole] | 0.48 | 0.5 (≈ 2.92 µM) | 2 (≈ 11.7 µM) | 0.062-32 | 1 (≈ 5.84 µM) |  |  | 0.25 (≈ 1.46 µM) |  |  |  |  |  |  |  |
| C[C@@H](O)[C@H]1C(=O)N2C(C(=O)O)=C(SCCN=CN)C[C@H]12 [Imipenem] | 0.084 | 0.064 (≈ 0.214 µM) | 1 (≈ 3.34 µM) | 0.008-4 | 0.03 (≈ 0.1 µM) | 0.03 (≈ 0.1 µM) | ≤ 0.016 | 0.25 (≈ 0.835 µM) |  |  |  |  |  |  |  |
| C[C@@H]1CN(c2c(F)c(N)c3c(=O)c(C(=O)O)cn(C4CC4)c3c2F)C[C@H](C)N1 [Sparfloxacin] |  |  |  |  |  |  |  |  | 1 (≈ 2.55 µM) | 2 (≈ 5.1 µM) | 0.53 (≈ 1.35 µM) | 4 (≈ 10.2 µM) | 8 (≈ 20.4 µM) | 3.53 (≈ 8.99 µM) |  |
| CC1(C)S[C@@H]2[C@H](NC(=O)[C@H](N)c3ccc(O)cc3)C(=O)N2[C@H]1C(=O)O [Amox] | 1.37 | 1 (≈ 2.74 µM) | 256 (≈ 701 µM) | 0.062-256 |  |  |  | 0.5 (≈ 1.37 µM) |  |  |  |  |  |  |  |
| CC(=O)NC[C@H]1CN(c2ccc(N3CCOCC3)c(F)c2)C(=O)O1 [Linezolid] | 1.13 | 1 (≈ 2.96 µM) | 4 (≈ 11.9 µM) | 0.25-4 | 1 (≈ 2.96 µM) | 1 (≈ 2.96 µM) | 1 (≈ 2.96 µM) | 0.5 (≈ 1.48 µM) | 8 (≈ 23.7 µM) | 64 (≈ 190 µM) | 8 (≈ 23.7 µM) | 16 (≈ 47.4 µM) | 64 (≈ 190 µM) | 20.6 (≈ 61 µM) | MIC (MRSE 879; MRSE 879, broth): 2 µg/mL (≈ 5.93 µM); concentration which would kill adherent bacteria [3]: 32 µg/mL; Cmax [6]: 12000 to 16000 ng/mL |
| COc1c(N2C[C@@H]3CCCN[C@@H]3C2)c(F)cc2c(=O)c(C(=O)O)cn(C3CC3)c12 [Moxifloxacin] |  |  |  |  |  | 0.5 (≈ 1.25 µM) | 0.03 (≈ 0.0747 µM) | 1 (≈ 2.49 µM) |  |  |  |  |  |  |  |
| NNC(=O)c1ccncc1 [Isoniazid] |  |  |  |  |  |  |  |  | 8 (≈ 58.3 µM) | 64 (≈ 467 µM) | 3.17 (≈ 23.1 µM) | 32 (≈ 233 µM) | 64 (≈ 467 µM) | 18.1 (≈ 132 µM) |  |
| CN[C@H](CC(C)C)C(=O)N[C@H]1C(=O)N[C@@H](CC(N)=O)C(=O)N[C@H]2C(=O)N[C@H]3C(=O)N[C@H](C(=O)N[C@H](C(=O)O)c4cc(O)cc(O)c4-c4cc3ccc4O)[C@H](O)c3ccc(c(Cl)c3)Oc3cc2cc(c3O[C@@H]2O[C@H](CO)[C@@H](O)[C@H](O)[C@H]2O[C@H]2C[C@](C)(N)[C@H](O)[C@H](C)O2)Oc2ccc(cc2Cl)[C@H]1O [Vancomycin] | 9.31 | 32 (≈ 22.1 µM) | 32 (≈ 22.1 µM) | 0.5-32 | > 16 | 2 (≈ 1.38 µM) | 8 (≈ 5.52 µM) | > 16 |  |  |  |  |  |  | MIC (Clostridium perfringens): 0.5 µg/mL (≈ 0.345 µM); MIC (MRSE 879; MRSE): 1 µg/mL (≈ 0.69 µM); concentration which would kill adherent bacteria [3]: 8 µg/mL |
| Synercid | 1.61 | 1 | 16 | 0.062-16 | 2 | ≤ 0.125 | 0.25 | 0.25 |  |  |  |  |  |  | broth MIC (MRSE 879; MRSE 879, broth): 0.5 µg/mL; concentration which would kill adherent bacteria [3]: 2 µg/mL |
| CCC[C@@H]1C[C@@H](C(=O)N[C@@H]([C@H]2O[C@H](SC)[C@H](O)[C@@H](O)[C@H]2O)[C@H](C)Cl)N(C)C1 [Clindamycin] | 0.208 | 0.125 (≈ 0.294 µM) | 8 (≈ 18.8 µM) | 0.008-64 | > 32 | ≤ 0.016 | ≤ 0.016 | 0.03 (≈ 0.0706 µM) |  |  |  |  |  |  |  |
| Amox + clav | 0.423 | 0.25 | 8 | 0.062-32 | ≤ 0.125 | ≤ 0.125 | ≤ 0.125 | 0.5 |  |  |  |  |  |  |  |
| CC[C@H]1OC(=O)[C@H](C)[C@@H](O[C@H]2C[C@@](C)(OC)[C@@H](O)[C@H](C)O2)[C@H](C)[C@@H](O[C@@H]2O[C@H](C)C[C@H](N(C)C)[C@H]2O)[C@](C)(OC)C[C@@H](C)C(=O)[C@H](C)[C@@H](O)[C@]1(C)O [Clarithromycin] |  |  |  |  |  |  |  |  | 16 (≈ 21.4 µM) | 32 (≈ 42.8 µM) | 12.7 (≈ 17 µM) | 1 (≈ 1.34 µM) | 4 (≈ 5.35 µM) | 1.55 (≈ 2.08 µM) |  |
